Test results: patent publication US7273848B2, “Apolipoprotein A-I agonists and their use to treat dyslipidemic disorders” (priority 1997, dated 2007)
Non-standard residues stand in square brackets, D forms with d. Residues, ends and D or L forms follow the SMILES beside them. No end group written: not given here. 1Nal = N[C@@H](Cc1cccc2ccccc12)C(=O)O; Aib = CC(C)(N)C(=O)O

How the values were obtained:
[1] = target: T1, LCAT (purified from human plasma) (Homo sapiens, UniProt P04180); assay: LCAT activation assay; format: biochemical; conditions: LCAT activation as compared with native human ApoA-I (= 100%), equivalent masses
T1 construct: from tissue; host or cells: human plasma
T1 sequence (P04180 25-440): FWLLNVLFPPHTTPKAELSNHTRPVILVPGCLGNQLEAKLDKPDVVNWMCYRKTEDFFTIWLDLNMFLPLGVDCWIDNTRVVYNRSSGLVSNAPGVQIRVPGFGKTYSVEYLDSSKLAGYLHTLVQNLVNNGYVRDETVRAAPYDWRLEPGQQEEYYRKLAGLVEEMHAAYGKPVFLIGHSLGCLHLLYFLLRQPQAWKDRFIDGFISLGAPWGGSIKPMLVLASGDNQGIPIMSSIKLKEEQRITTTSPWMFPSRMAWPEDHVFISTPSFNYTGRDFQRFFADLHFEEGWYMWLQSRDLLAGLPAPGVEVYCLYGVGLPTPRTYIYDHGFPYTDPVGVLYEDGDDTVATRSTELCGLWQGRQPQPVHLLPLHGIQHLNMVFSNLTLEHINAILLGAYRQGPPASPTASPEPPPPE
Outline: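 Activity was expressed as percentage conversion of radiolabelled cholesterol to cholesteryl ester, normalised to native ApoA-I as 100%. LCAT purified from human plasma was added to peptide-preincubated EPC or POPC/cholesterol (20:1) small unilamellar vesicles at pH 7.4. Specific activity is the peptide concentration reaching the conversion plateau at a fixed timepoint.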

[2] = Circular dichroism helicity determination; format: physicochemical; conditions: percent helicity; for He (%) TFE: 5 μM peptide, 90% vol TFE; for He (%) TFE / He (%) SUVs: 37° C.; for He (%) free: unbound peptide 5 μM in 5 mM phosphate buffer, pH 7.4, 37° C.; for He (%) SUVs: peptide-SUV complexes (20:1 EPC:Chol., Ri=30 and Ri=50); for He (%) mics: peptide-micelle complexes, Ri=100, 37° C.
Outline: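 Far-UV CD (190–260 nm) at 37° C on 5 μM peptide in 5 mM phosphate pH 7.4, free, with EPC:Chol 20:1 SUVs (Ri 30 or 50), lysophosphatidylcholine micelles (Ri 100) or 90% TFE. Spectra converted to molar ellipticity per residue; helicity from 222 nm ellipticity or CONTIN fitting to reference spectra, ±5%.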

| ACTIVITY (%) LCAT [1] [%] | He (%) free [2] [%] | He (%) SUVs [2] [%] | He (%) mics [2] [%] | ACTIVITY (%) LCAT ([1]; listed as 18AM4) | Molecule | He (%) TFE [2] [%] |
| --- | --- | --- | --- | --- | --- | --- |
| 79 | 60 | 70 | 87 | – | CC(C)C[C@H](NC(=O)[C@H](CCCCN)NC(=O)[C@H](CCC(N)=O)NC(=O)[C@H](CCCCN)NC(=O)[C@H](Cc1cccc2ccccc12)NC(=O)[C@H](C)NC(=O)[C@H](CCC(=O)O)NC(=O)[C@H](CC(C)C)NC(=O)[C@H](CC(C)C)NC(=O)[C@H](CCC(=O)O)NC(=O)[C@H](CC(N)=O)NC(=O)[C@H](CC(C)C)NC(=O)[C@H](CC(C)C)NC(=O)[C@H](CCC(=O)O)NC(=O)[C@H](CCCNC(=N)N)NC(=O)[C@H](Cc1ccccc1)NC(=O)[C@H](CC(C)C)NC(=O)[C@H](CC(=O)O)NC(=O)[C@H](CC(C)C)NC(=O)[C@@H](NC(=O)[C@@H]1CCCN1)C(C)C)C(=O)N[C@@H](CCCCN)C(=O)O [peptide 10, PVLDLFRELLNELLEAZKQKLK] (H-PVLDLFRELLNELLEA[1Nal]KQKLK-OH) | 71 |
| 61 | 70 | 80 | 96 | – | CC(C)C[C@H](NC(=O)[C@H](C)NC(=O)[C@H](CCC(=O)O)NC(=O)[C@H](CC(C)C)NC(=O)[C@H](CC(C)C)NC(=O)[C@H](CCC(=O)O)NC(=O)[C@H](CC(N)=O)NC(=O)[C@H](CC(C)C)NC(=O)[C@H](CC(C)C)NC(=O)[C@H](CCC(=O)O)NC(=O)[C@H](CCCNC(=N)N)NC(=O)[C@H](Cc1ccccc1)NC(=O)[C@H](CC(C)C)NC(=O)[C@H](CC(=O)O)NC(=O)[C@H](CC(C)C)NC(=O)[C@@H](NC(=O)[C@@H]1CCCN1)C(C)C)C(=O)N[C@@H](CCCN)C(=O)N[C@@H](CCC(N)=O)C(=O)N[C@@H](CCCN)C(=O)N[C@@H](CC(C)C)C(=O)N[C@@H](CCCN)C(=O)O [peptide 14, PVLDLFRELLNELLEALOQOLO] | – |
| 51 | 46 | – | 82 | – | CC(C)C[C@H](NC(=O)[C@H](C)NC(=O)[C@H](CCC(=O)O)NC(=O)[C@H](CC(C)C)NC(=O)C(C)(C)NC(=O)[C@H](CCC(=O)O)NC(=O)[C@H](CC(N)=O)NC(=O)[C@H](CC(C)C)NC(=O)[C@H](CC(C)C)NC(=O)[C@H](CCC(=O)O)NC(=O)[C@H](CCCNC(=N)N)NC(=O)[C@H](Cc1ccccc1)NC(=O)[C@H](Cc1ccccc1)NC(=O)[C@H](CC(=O)O)NC(=O)[C@H](CC(C)C)NC(=O)[C@@H](NC(=O)[C@@H]1CCCN1)C(C)C)C(=O)N[C@@H](CCCCN)C(=O)N[C@@H](CCC(N)=O)C(=O)N[C@@H](CCCCN)C(=O)N[C@@H](CC(C)C)C(=O)N[C@@H](CCCCN)C(=O)O [peptide 25, PVLDFFRELLNEXLEALKQKLK] (H-PVLDFFRELLNE[Aib]LEALKQKLK-OH) | 93 |
| 19 | 49 | 60 | 72 | – | Ac-EWLKAFYEKVLEKLKELF-NH2 [peptide 238, reference compound] | 58 |
| 38 | 28 | 53 | 63 | – | Ac-PVLDLFRELLEEWKQKLK-NH2 [compound 215] | 68 |
| 5 | 10 | 50 | 64 | – | DWFKAFYDKVAEKFKEAF [peptide 243, reference compound] | – |
| 4 | 38 | 70 | 77 | – | DWLKAFYDKVFEKFKEFF [peptide 245, reference compound] | – |
| 4 | 18 | 47 | 44 | less than 4% | EWLEAFYKKVLEKLKELF [peptide 246, reference compound] | – |
| 3 | 18 | 13 | 45 | – | EWLKAFYEKVLEKLKELF [peptide 248, reference compound] | – |
| 11 | 30 | 45 | 66 | – | LDDLLQKWAEAFNQLLKK [peptide 237, reference compound] | – |
| 1 | 29 | 32 | 28 | – | PAADAFREAANEAAEAAKQKAK [compound 105] | 65 |
| 7 | 58 | 64 | 61 | – | PLDLFRELLNELLEALKQKLK [compound 85] | 69 |
| 19 | 38 | 78 | 72 | – | PLFRELLNELLEALKQKLK [compound 55] | 75 |
| 31 | 95 | – | 100 | – | PLLELLKELLQELLEALKQKLK [compound 36] | 95 |

| Molecule | ACTIVITY (%) LCAT [1] [%] | He (%) free [2] [%] | He (%) SUVs [2] [%] | He (%) mics [2] [%] | ACTIVITY (%) LCAT ([1]; listed as 18AM4) | He (%) TFE [2] [%] |
| --- | --- | --- | --- | --- | --- | --- |
| CC(C)C[C@H](NC(=O)[C@H](C)NC(=O)[C@H](CC(=O)O)NC(=O)[C@H](CC(C)C)NC(=O)[C@H](CC(C)C)NC(=O)[C@H](CCCNC(=N)N)NC(=O)[C@H](CCC(=O)O)NC(=O)[C@H](CC(C)C)NC(=O)[C@H](CC(C)C)NC(=O)[C@H](CC(N)=O)NC(=O)[C@H](CCC(=O)O)NC(=O)[C@H](Cc1ccccc1)NC(=O)[C@H](CC(C)C)NC(=O)[C@H](CCC(=O)O)NC(=O)[C@H](CC(C)C)NC(=O)[C@@H](NC(=O)[C@H]1CCCN1)C(C)C)C(=O)N[C@@H](CCC(N)=O)C(=O)N[C@@H](CCCCN)C(=O)N[C@@H](CCCCN)C(=O)N[C@@H](CC(C)C)C(=O)N[C@@H](CCCCN)C(=O)O [peptide 144] (H-[dP]VLELFENLLERLLDALQKKLK-OH) | 111 | 89 | – | 88 | – | 95 |
| Ac-DWLKAFYDKVAEKLKEAF-NH2 [compound 240, reference compound] | 10 | 16 | 59 | 68 | – | 57 |
| Ac-PLLDLFRELLEELKQKLK-NH2 [compound 197] | 81 | 43 | – | 70 | – | 69 |
| Ac-PVLDLFKELLEELKQKLK-NH2 [compound 192] | 100 | 36 | – | – | – | 56 |
| Ac-PVLDLFRELLEELKQKLK-NH2 [compound 193] | 96 | 34 | 87 | 88 | – | 87 |
| Ac-PVLDLFRELWEELKQKLK-NH2 [compound 199] | 76 | 35 | 80 | 77 | – | 79 |
| Ac-PVLELFRELLEELKQKLK-NH2 [compound 194] | 88 | 38 | – | 93 | – | 93 |
| DWLKAFYDKVAEKLKEAF [peptide 244, reference compound] | 5 | 9 | 13 | 40 | – | 48 |
| GVLELFENLLERLLDALQKKLK [peptide 145] | 100 | 55 | – | 51 | – | 58 |
